The nature of data set [1]: standard pentamethylenetetrazole (pentetrazole) test for anticonvulsant activity, method of Orloff. In kind it is in vivo. The conditions noted are these: p.o. An excerpt:
The compounds of formula I above and their pharmaceutically acceptable acid addition salts are useful as sedative muscle relaxant and anti-convulsant agents.

For data set [2], the system named is mice. Description: standard rotating rod test (sedative and muscle-relaxant activity). In kind it is in vivo. The conditions noted are these: p.o. How it is done: In this test, the ability of mice to achieve a coordinated motor performance is investigated. After peroral administration of the test substance, the mice are placed upon a horizontal slowly rotating rod and the time they remain on the rod is recorded. The ED50 is that dose which reduces the holding on period of the mice by 50% as compared to the holding on period prior to the administration of the test substance.

The nature of data set [3]: LD50 (p.o.), acute toxicity. The conditions noted are these: in vivo, po.

Molecules are shown by their SMILES.

As usually defined, the LD50 is the dose expected to kill half of the subjects tested. The low end stands for a more toxic substance, the high end for a less toxic substance.

Consider `O=C1CN=C(c2ccccc2F)c2cc(Cl)ccc2N1CC(O)CO` (stereo not drawn) [Compound A, 7-chloro-1-(2,3-dihydroxypropyl)-5-(2-fluorophenyl)-1,3-dihydro-2H-1,4-benzodiazepin-2-one], for which the “APR 2.0 (dosage of an anticonvulsant which causes a two-fold pentetrazole consumption in contrast to an untreated control group)” value in data set [1] worked out at 5.6 mg/kg. For the same compound, the “ED50 (dose which reduces the holding on period of the mice by 50% as compared to the holding on period prior to administration)” value in data set [2] stood at 5.1 mg/kg. Also, the LD50 in data set [3] is 1250 to 2500 mg/kg.
